In brackets after ≈: the same amount, converted by molar mass. Activity calls are given as the source filed them. The calls are words filed in the database; no cut-off is given here.
Columns and labels:
Moraxella catarrhalis = assay: Bactericidal activity against serine beta-lactamase producing Moraxella catarrhalis incubated in MH broth for 24 to 48 hrs by microbroth dilution method; assay type: functional
[1] = tested on: Mycobacterium tuberculosis; assay: Antitubercular activity against serine beta-lactamase producing Mycobacterium tuberculosis H37Rv after 14 days in presence of middlebrook 7H9/BSA medium by eleven fold serial dilution method; assay type: functional; details: 336 h
[2] = tested on: Mycobacterium tuberculosis; assay: Antitubercular activity against serine beta-lactamase producing Mycobacterium tuberculosis H37Rv after 14 days in presence of GAST/Fe medium by eleven fold serial dilution method; assay type: functional; details: 336 h
[3] = tested on: Mycobacterium tuberculosis; assay: (§1) Bactericidal activity against serine beta-lactamase producing Mycobacterium tuberculosis H37Rv assessed as induction of microbial kill at MIC preincubated in middlebrook 7H9 medium for 7 days and further incubated in middlebrook 7H11/BSA supplemented with OADC for 3 weeks by serial dilution based colony counting method; assay type: functional
[4] = tested on: Mycobacterium tuberculosis; assay: as §1, with “reduction in” for “induction of”, “cell number” for “kill”; assay type: functional, organism-based
[5] = tested on: Mycobacterium tuberculosis; assay: Antitubercular activity against clinical drug sensitive Mycobacterium tuberculosis K14b00DS after 14 days in presence of middlebrook 7H9/BSA medium by eleven fold serial dilution method; assay type: functional; details: 336 h

## C[C@@H](NC(=O)N1C(=O)C[C@@H]1Sc1ccc(F)cc1)c1ccccc1
Moraxella catarrhalis
  MBC: 25 µg/mL (≈ 72.6 µM)
  MIC: 25 µg/mL (≈ 72.6 µM)
[1]
  MIC99: 50 µg/mL
[2]
  MIC99: 12.5 µg/mL

## O=C1CC(Sc2ccc(F)c(F)c2)N1 (racemic)
[1]
  MIC99: 50 µg/mL
[3]
  LCK: <3
[4]
  Activity: Active

## COc1ccccc1S[C@@H]1CC(=O)N1C(=O)N[C@H](C)c1ccccc1
Moraxella catarrhalis
  MIC: > 200 µg/mL
[1]
  MIC99: > 100 µg/mL
[2]
  MIC99: 25 µg/mL

## C[C@H](NC(=O)N1C(=O)C[C@@H]1[Se]c1ccccc1)c1ccccc1
Moraxella catarrhalis
  MBC: 50 µg/mL (≈ 134 µM)
  MIC: 25 µg/mL (≈ 67 µM)
[1]
  MIC99: 25 µg/mL
[2]
  MIC99: 6.2 µg/mL

## COc1ccc(S[C@H]2CC(=O)N2C(=O)N[C@@H](C)c2ccccc2)cc1
Moraxella catarrhalis
  MBC: 50 µg/mL (≈ 140 µM)
  MIC: 50 µg/mL (≈ 140 µM)
[1]
  MIC99: > 50 µg/mL
[2]
  MIC99: 25 µg/mL

## C[C@H](NC(=O)N1C(=O)C[C@@H]1Sc1ccccc1F)c1ccccc1
Moraxella catarrhalis
  MBC: 200 µg/mL (≈ 581 µM)
  MIC: 25 µg/mL (≈ 72.6 µM)
[1]
  MIC99: 25 µg/mL
[2]
  MIC99: 6.2 µg/mL

## C[C@H](NC(=O)N1C(=O)C[C@H]1Sc1ccc(F)cc1F)c1ccccc1
Moraxella catarrhalis
  MBC: 50 µg/mL (≈ 138 µM)
  MIC: 50 µg/mL (≈ 138 µM)
[1]
  MIC99: 50 µg/mL
[2]
  MIC99: 0.7 µg/mL
[5]
  MIC: 50 µg/mL

## C[C@H](NC(=O)N1C(=O)C[C@H]1Sc1c(F)c(F)c(F)c(F)c1F)c1ccccc1
Moraxella catarrhalis
  MBC: 50 µg/mL (≈ 120 µM)
  MIC: 50 µg/mL (≈ 120 µM)
[1]
  MIC99: 100 µg/mL
[2]
  MIC99: 0.7 µg/mL
[3]
  LCK: <3
[4]
  Activity: Active

## C[C@@H](NC(=O)N1C(=O)C[C@H]1Sc1ccc(F)cc1F)c1ccccc1
Moraxella catarrhalis
  MBC: 12.5 µg/mL (≈ 34.5 µM)
  MIC: 12.5 µg/mL (≈ 34.5 µM)
[1]
  MIC99: 50 µg/mL
[2]
  MIC99: 0.3 µg/mL
[5]
  MIC: 25 µg/mL

## C[C@H](NC(=O)N1C(=O)C[C@H]1Sc1ccc(F)cc1)c1ccccc1
Moraxella catarrhalis
  MBC: 50 µg/mL (≈ 145 µM)
  MIC: 50 µg/mL (≈ 145 µM)
[1]
  MIC99: 50 µg/mL
[2]
  MIC99: 12.5 µg/mL

## O=C1CC(Sc2c(F)c(F)c(F)c(F)c2F)N1 (racemic)
[1]
  MIC99: > 100 µg/mL

## COc1ccc(SC2CC(=O)N2C(=O)NCc2ccccc2)cc1 (racemic)
[1]
  MIC99: 125 µg/mL

## C[C@H](NC(=O)N1C(=O)C[C@@H]1Sc1ccc(F)c(Cl)c1)c1ccccc1
Moraxella catarrhalis
  MBC: 25 µg/mL (≈ 66 µM)
  MIC: 25 µg/mL (≈ 66 µM)
[1]
  MIC99: 25 µg/mL
[2]
  MIC99: 1.5 µg/mL

## O=C1CC(Sc2ccc(F)cc2)N1C(=O)NCc1ccccc1 (racemic)
[1]
  MIC99: 6.2 µg/mL

## O=C1CC(Sc2ccc(F)cc2)N1 (racemic)
[1]
  MIC99: > 100 µg/mL

## C[C@H](NC(=O)N1C(=O)C[C@H]1Sc1ccc(F)c(Cl)c1)c1ccccc1
Moraxella catarrhalis
  MBC: 200 µg/mL (≈ 528 µM)
  MIC: 200 µg/mL (≈ 528 µM)
[1]
  MIC99: 25 µg/mL
[2]
  MIC99: 1.5 µg/mL

## O=C1CC(Sc2ccccc2F)N1 (racemic)
[1]
  MIC99: 100 µg/mL

## COc1ccccc1SC1CC(=O)N1 (racemic)
[1]
  MIC99: > 250 µg/mL

## C[C@H](NC(=O)N1C(=O)C[C@H]1[Se]c1ccccc1)c1ccccc1
Moraxella catarrhalis
  MBC: 50 µg/mL (≈ 134 µM)
  MIC: 25 µg/mL (≈ 67 µM)
[1]
  MIC99: 25 µg/mL
[2]
  MIC99: 6.2 µg/mL

## C[C@H](NC(=O)N1C(=O)C[C@@H]1Sc1ccc(F)cc1F)c1ccccc1
Moraxella catarrhalis
  MBC: 12.5 µg/mL (≈ 34.5 µM)
  MIC: 12.5 µg/mL (≈ 34.5 µM)
[1]
  MIC99: 12.5 µg/mL
[2]
  MIC99: 0.7 µg/mL

## O=C1CC([Se]c2ccccc2)N1 (racemic)
Moraxella catarrhalis
  MBC: 6.2 µg/mL (≈ 27.4 µM)
  MIC: 6.2 µg/mL (≈ 27.4 µM)
[1]
  MIC99: 25 µg/mL

## O=C1CC(Sc2ccc(F)c(Cl)c2)N1 (racemic)
[2]
  MIC99: 0.7 µg/mL

## O=C1CC(Sc2ccc(F)cc2F)N1 (racemic)
Moraxella catarrhalis
  MBC: 3.1 µg/mL (≈ 14.4 µM)
[1]
  MIC99: 3.1 µg/mL

## O=C1CC(Sc2ccc(F)cc2F)N1C(=O)NCc1ccccc1 (racemic)
Moraxella catarrhalis
  MBC: 1.6 µg/mL (≈ 4.59 µM)
  MIC: 1.6 µg/mL (≈ 4.59 µM)
[1]
  MIC99: 100 µg/mL

## C[C@H](NC(=O)N1C(=O)C[C@H]1Sc1ccc(C(F)(F)F)cc1)c1ccccc1
Moraxella catarrhalis
  MBC: 200 µg/mL (≈ 507 µM)
  MIC: 200 µg/mL (≈ 507 µM)
[1]
  MIC99: 100 µg/mL

## C[C@@H](NC(=O)N1C(=O)C[C@@H]1Sc1ccc(F)c(F)c1)c1ccccc1
Moraxella catarrhalis
  MBC: 25 µg/mL (≈ 69 µM)
  MIC: 25 µg/mL (≈ 69 µM)
[1]
  MIC99: > 100 µg/mL
[2]
  MIC99: 0.7 µg/mL

## COc1ccc(S[C@H]2CC(=O)N2C(=O)N[C@H](C)c2ccccc2)cc1
Moraxella catarrhalis
  MBC: 50 µg/mL (≈ 140 µM)
  MIC: 50 µg/mL (≈ 140 µM)
[1]
  MIC99: 100 µg/mL
[2]
  MIC99: 25 µg/mL

## C[C@@H](NC(=O)N1C(=O)C[C@H]1Sc1ccc(C(F)(F)F)cc1)c1ccccc1
Moraxella catarrhalis
  MBC: 200 µg/mL (≈ 507 µM)
  MIC: 200 µg/mL (≈ 507 µM)
[1]
  MIC99: 100 µg/mL

## COc1ccccc1S[C@H]1CC(=O)N1C(=O)N[C@H](C)c1ccccc1
Moraxella catarrhalis
  MBC: 50 µg/mL (≈ 140 µM)
  MIC: 50 µg/mL (≈ 140 µM)
[1]
  MIC99: 50 µg/mL
[2]
  MIC99: 25 µg/mL

## C[C@@H](NC(=O)N1C(=O)C[C@H]1Sc1ccc(F)c(Cl)c1)c1ccccc1
Moraxella catarrhalis
  MBC: 25 µg/mL (≈ 66 µM)
  MIC: 25 µg/mL (≈ 66 µM)
[1]
  MIC99: 25 µg/mL
[2]
  MIC99: 1.5 µg/mL

— ChEMBL document CHEMBL4304800, “C4-Phenylthio β-lactams: Effect of the chirality of the β-lactam ring on antimicrobial activity” (2019)
